Source: ChEMBL document CHEMBL1201862, “PubChem BioAssay data set” (2004)
Activity calls are given as the source filed them.

Key:
HEK293 [1] = experiment: cells; type: functional, cell-based; conditions: Homo sapiens
[2] = biological target: T1, Nuclear receptor subfamily 0 group B member 1 (Homo sapiens, UniProt P51843); experiment: Luminescence-based cell-based high throughput dose response assay for inhibitors of the orphan nuclear receptor subfamily 0, group B, member 1 (DAX1; NR0B1). [Related pubchem assays (depositor defined):AID504766, AID504790]; type: functional
T1 sequence (P51843 whole entry): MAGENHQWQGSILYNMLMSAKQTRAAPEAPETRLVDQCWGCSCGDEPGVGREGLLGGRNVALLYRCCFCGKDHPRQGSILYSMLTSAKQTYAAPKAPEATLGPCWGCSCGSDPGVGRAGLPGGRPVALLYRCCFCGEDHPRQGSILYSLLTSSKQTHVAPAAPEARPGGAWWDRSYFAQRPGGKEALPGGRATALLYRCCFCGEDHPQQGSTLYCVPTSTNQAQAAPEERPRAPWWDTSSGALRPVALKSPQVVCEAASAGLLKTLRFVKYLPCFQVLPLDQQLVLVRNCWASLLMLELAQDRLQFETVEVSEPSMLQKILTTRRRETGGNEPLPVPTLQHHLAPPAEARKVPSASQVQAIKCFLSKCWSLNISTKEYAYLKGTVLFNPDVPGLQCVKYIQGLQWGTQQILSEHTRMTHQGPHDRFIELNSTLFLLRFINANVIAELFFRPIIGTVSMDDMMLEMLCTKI

[3] = biological target: Ras and Rab interactor 1/Tyrosine-protein kinase ABL1 (Homo sapiens, UniProt P00519+Q13671); type: functional;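 note: biochemical TR-FRET dose-response test measuring inhibition of binding between Rin1 and Abl proteins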
HeLa = experiment: ATP-based viability loss in HeLa cells – cell-based, CellTiter-Glo luminescence, cherry-pick samples, cytotoxicity control for MITF activator project, dose response (AID 540259); type: functional; conditions: Homo sapiens
[4] = biological target: T2, Heat shock factor protein 1 (Mus musculus, UniProt P38532); experiment: enhancement of HSF1-driven luciferase signal – cell-based, NIH3T3, luminescence, dose retest, confirmation (AID 435004); type: functional;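 note: stress induced by proteasome inhibitor MG132 added 30 min after compound; luciferase reporter driven by HSF1 response element in NIH3T3 cells; actives raise luminescence as potentiators of the MG132 stress response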
T2 sequence (P38532 whole entry): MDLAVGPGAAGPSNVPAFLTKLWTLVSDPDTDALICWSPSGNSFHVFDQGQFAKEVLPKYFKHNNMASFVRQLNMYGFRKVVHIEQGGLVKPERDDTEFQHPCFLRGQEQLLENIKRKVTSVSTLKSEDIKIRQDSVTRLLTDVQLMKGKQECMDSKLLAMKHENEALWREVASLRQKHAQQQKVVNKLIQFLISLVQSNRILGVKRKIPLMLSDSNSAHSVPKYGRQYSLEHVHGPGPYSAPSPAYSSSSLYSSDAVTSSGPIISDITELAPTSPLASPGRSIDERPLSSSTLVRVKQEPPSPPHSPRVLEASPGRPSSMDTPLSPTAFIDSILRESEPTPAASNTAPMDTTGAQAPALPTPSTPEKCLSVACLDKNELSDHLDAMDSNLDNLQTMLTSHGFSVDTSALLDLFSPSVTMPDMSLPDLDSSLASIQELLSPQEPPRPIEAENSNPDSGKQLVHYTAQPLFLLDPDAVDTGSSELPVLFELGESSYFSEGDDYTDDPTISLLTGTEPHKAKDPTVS

[5] = Luminescence Cell-Based Dose Retest to Confirm Inhibitors of Cancer Stem Cells. [Related pubchem assays (depositor defined):AID2717, AID2721]; type: functional; conditions: Homo sapiens
Vero [6] = experiment: cells; type: functional; conditions: Chlorocebus sabaeus
Vero [7] = experiment: cells; type: functional, cell-based; conditions: Chlorocebus sabaeus
Protein Wnt-3a = Protein Wnt-3a (Mus musculus, UniProt P27467); experiment: antagonism of Wnt3a pathway luciferase reporter – Wnt-LIGHT cells, luminescence, selectivity assay for Gli-SUFU antagonist project, dose response (AID 651570); type: functional; conditions: read-out: IC50_Mean;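 note: Wnt-LIGHT reporter cells stimulated with conditioned medium from Wnt3a-producing cells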
[8] = Luminescence-based cell-based high throughput dose response assay to identify activators of the DAF-12 from the parasite S. stercoralis (ssDAF-12).; type: functional
Tumor necrosis factor = Tumor necrosis factor (Homo sapiens, UniProt P01375); experiment: analog potency on TNFa NF-kB signaling – cell-based, revised, SAR follow-up (AID 2337); type: functional
cells [9] = type: functional, cell-based; conditions: HEK-CNG
INS1 = experiment: INS-1E survival protection against cytokine death – cell-based, luminescence, retest, dose response (AID 449756); type: functional; conditions: Rattus norvegicus;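 note: cell death triggered by IL-1 beta plus TNF-alpha plus IFN-gamma mixture; protective hits raise ATP signal compared with cytokine alone wells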
HEK293 [10] = experiment: cells; conditions: Homo sapiens
Galanin receptor type 3 = Galanin receptor type 3 (Homo sapiens, UniProt O60755); experiment: Fluorescence-based cell-based primary high throughput dose response assay to identify antagonists of the Galanin Receptor 3 (GalR3).; type: functional
[11] = biological target: T3, COUP transcription factor 2 (Homo sapiens, UniProt P24468); experiment: Luminescence-based cell-based high throughput dose response assay to identify inhibitors of COUP-TFII (NR2F2).; type: functional;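 note: HEK293 cells transiently cotransfected with COUP-TFII expression vector and reporter; luciferase reporter luminescence driven by COUP-TFII from the pX2-168 reporter plasmid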
T3 sequence (P24468 whole entry): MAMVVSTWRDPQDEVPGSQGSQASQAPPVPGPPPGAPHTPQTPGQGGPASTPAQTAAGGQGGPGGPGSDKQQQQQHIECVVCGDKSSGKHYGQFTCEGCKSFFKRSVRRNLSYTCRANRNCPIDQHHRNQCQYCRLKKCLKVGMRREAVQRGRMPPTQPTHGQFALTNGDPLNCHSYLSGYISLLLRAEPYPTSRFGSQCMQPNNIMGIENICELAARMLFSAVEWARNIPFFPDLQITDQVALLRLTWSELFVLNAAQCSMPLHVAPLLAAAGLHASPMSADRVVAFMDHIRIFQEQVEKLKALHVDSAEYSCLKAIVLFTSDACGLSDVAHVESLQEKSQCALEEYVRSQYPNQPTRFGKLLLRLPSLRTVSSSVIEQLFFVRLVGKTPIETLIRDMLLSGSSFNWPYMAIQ

[12] = biological target: T4, Nucleotide-binding oligomerization domain-containing protein 1 (Homo sapiens, UniProt Q9Y239); experiment: blockers of NOD1 pathway activity – revised, SAR follow-up (AID 2333); type: functional
T4 sequence (Q9Y239 whole entry): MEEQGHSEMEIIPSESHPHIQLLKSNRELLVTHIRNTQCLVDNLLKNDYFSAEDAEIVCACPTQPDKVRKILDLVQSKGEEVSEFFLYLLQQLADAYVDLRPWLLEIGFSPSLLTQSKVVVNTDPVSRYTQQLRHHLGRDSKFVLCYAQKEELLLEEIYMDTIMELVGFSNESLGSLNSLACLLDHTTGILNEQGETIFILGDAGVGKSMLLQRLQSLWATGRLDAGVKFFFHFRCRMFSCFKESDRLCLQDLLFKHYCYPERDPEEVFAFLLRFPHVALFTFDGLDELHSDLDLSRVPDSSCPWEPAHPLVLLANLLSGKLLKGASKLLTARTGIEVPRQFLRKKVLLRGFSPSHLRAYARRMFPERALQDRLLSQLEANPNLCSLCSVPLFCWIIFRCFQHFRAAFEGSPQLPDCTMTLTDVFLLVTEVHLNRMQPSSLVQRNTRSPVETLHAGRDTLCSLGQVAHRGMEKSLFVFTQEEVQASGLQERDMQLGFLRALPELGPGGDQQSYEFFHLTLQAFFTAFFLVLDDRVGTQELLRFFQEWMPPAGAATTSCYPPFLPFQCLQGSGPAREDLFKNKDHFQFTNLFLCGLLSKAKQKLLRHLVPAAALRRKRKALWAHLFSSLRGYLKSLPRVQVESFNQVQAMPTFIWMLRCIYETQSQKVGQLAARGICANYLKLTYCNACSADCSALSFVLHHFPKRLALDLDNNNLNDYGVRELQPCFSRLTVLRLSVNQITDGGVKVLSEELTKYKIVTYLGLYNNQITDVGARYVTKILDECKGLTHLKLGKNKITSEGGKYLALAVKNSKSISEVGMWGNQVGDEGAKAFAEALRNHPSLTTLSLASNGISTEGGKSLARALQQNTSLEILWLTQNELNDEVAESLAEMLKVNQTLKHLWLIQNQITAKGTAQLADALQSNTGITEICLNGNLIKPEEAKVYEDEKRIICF

Melanocortin receptor 4 = Melanocortin receptor 4 (Homo sapiens, UniProt P32245); type: functional, cell-based;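 note: Cell-based assay with luminescence read-out, confirmatory dose-response testing for agonist activity of biased ligands at MC4R; human U2OS cells with tagged receptor and beta-arrestin; potency of agonists that increase receptor coupling to beta-arrestin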
[13] = microbe, parasite or virus in culture; type: functional; conditions: Mycobacterium tuberculosis
[14] = biological target: T5, Ubiquitin-conjugating enzyme E2 N (Homo sapiens, UniProt P61088); type: functional;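 note: Dose-response confirmation in a TR-FRET assay detecting UBC13-driven polyubiquitin chain formation, inhibition measured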
T5 sequence (P61088 whole entry): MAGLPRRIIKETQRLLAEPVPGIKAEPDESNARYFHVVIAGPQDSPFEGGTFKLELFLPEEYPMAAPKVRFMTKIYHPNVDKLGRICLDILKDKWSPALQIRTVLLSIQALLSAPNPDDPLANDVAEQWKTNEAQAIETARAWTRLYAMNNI

[15] = IGROV1 cell killing – plate reader, dry powder samples, PAX8 inhibitor project, dose response (AID 743043); type: functional, cell-based; conditions: IGROV-1
Paired box protein Pax-8 = Paired box protein Pax-8 (Homo sapiens, UniProt Q06710); experiment: PAX8 transcriptional activity inhibition in RMG-I – RMG-I cells, luciferase, cherry-pick, dose response (AID 687027); type: functional, cell-based;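 note: luciferase reporter driven by Pax8 target thyroperoxidase promoter measured by SteadyGlo luminescence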
[16] = OVCAR8 cell viability loss – plate reader, dry powder samples, PAX8 project, dose response (AID 743197); type: functional, cell-based; conditions: OVCAR-8
[17] = OVCAR-3 cell viability loss – plate reader, dry powder samples, PAX8 inhibitor project, dose response (AID 743044); type: functional, cell-based
[18] = biological target: T6, Oxysterols receptor LXR-beta (Homo sapiens, UniProt P55055); type: functional, cell-based;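 note: agonist activity at LXR measured by a cell-based luminescence readout across a dose range, run as a counterscreen for daf-12 agonists; HEK293 cells with Gal4-LXR fusion and GAL4-driven luciferase reporter; potency for activation of Gal4-LXR reporter so compounds are agonists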
T6 sequence (P55055 whole entry): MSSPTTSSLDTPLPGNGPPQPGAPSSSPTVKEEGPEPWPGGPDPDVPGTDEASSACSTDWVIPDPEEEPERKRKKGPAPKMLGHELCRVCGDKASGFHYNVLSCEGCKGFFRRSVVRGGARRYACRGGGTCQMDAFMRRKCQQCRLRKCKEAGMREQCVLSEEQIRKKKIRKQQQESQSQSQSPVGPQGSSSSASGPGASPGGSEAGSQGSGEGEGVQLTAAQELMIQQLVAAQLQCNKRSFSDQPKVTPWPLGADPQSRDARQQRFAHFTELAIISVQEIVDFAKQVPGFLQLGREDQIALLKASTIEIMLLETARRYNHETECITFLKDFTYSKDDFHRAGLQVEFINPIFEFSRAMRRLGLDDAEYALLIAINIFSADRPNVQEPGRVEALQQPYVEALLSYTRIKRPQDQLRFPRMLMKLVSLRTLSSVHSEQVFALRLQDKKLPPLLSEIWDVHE

[19] = T. cruzi growth inhibition in host cells, dose response, cell-based, plate reader, dry powder, set 2 (AID 652275); type: functional
cells [20] = type: functional, cell-based
cells [21] = type: functional, cell-based; remark: listed apart in the source

Ras and Rab interactor 1/Tyrosine-protein kinase ABL1, sequence (P00519 whole entry): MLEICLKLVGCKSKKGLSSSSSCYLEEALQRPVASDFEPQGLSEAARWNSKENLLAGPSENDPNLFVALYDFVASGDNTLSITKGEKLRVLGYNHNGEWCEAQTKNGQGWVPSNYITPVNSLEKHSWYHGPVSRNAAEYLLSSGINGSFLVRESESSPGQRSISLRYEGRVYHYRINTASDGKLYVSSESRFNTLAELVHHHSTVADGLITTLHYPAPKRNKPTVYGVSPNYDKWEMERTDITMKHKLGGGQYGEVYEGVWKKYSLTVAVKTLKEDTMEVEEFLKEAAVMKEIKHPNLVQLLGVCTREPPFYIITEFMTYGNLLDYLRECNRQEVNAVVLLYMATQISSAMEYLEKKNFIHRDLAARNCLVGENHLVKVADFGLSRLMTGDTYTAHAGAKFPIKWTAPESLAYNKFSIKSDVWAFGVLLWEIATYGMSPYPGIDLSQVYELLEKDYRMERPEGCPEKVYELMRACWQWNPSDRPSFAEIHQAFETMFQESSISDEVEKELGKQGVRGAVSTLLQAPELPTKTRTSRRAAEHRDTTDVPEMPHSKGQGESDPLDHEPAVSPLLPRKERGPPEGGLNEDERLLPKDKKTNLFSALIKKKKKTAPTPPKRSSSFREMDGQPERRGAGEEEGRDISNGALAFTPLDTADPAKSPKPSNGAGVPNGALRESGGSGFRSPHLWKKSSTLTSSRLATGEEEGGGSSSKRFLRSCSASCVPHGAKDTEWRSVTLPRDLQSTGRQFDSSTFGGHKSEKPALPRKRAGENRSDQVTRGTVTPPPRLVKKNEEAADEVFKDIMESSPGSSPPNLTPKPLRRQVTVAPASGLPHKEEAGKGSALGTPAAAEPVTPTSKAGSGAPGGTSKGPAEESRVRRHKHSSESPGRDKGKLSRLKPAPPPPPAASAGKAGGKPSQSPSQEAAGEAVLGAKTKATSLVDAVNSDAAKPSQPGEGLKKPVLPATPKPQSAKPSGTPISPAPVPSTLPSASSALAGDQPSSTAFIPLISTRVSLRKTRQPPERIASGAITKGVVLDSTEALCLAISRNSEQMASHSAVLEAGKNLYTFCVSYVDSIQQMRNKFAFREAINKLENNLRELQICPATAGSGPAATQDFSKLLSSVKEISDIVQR
Ras and Rab interactor 1/Tyrosine-protein kinase ABL1, sequence (Q13671 whole entry): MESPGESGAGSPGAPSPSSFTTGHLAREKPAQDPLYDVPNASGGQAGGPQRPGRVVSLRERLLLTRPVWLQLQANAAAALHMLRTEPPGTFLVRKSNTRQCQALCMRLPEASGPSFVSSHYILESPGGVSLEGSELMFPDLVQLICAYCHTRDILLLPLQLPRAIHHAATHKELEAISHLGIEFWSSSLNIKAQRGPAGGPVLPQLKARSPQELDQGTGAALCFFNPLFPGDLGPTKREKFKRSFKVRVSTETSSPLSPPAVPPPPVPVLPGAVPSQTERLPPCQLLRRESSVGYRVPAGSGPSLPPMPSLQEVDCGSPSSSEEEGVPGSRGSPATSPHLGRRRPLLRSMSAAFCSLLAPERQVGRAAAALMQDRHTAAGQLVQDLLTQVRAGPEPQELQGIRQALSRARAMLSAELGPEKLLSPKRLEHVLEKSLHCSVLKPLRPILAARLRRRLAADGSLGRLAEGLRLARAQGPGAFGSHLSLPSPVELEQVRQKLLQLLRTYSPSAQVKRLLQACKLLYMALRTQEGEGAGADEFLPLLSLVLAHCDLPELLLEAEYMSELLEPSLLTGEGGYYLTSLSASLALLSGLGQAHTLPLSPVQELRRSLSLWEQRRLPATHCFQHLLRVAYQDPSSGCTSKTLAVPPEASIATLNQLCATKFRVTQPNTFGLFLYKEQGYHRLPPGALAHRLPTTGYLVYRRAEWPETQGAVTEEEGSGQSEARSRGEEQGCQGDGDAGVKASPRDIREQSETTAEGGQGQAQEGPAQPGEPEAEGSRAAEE
Paired box protein Pax-8, sequence (Q06710 whole entry): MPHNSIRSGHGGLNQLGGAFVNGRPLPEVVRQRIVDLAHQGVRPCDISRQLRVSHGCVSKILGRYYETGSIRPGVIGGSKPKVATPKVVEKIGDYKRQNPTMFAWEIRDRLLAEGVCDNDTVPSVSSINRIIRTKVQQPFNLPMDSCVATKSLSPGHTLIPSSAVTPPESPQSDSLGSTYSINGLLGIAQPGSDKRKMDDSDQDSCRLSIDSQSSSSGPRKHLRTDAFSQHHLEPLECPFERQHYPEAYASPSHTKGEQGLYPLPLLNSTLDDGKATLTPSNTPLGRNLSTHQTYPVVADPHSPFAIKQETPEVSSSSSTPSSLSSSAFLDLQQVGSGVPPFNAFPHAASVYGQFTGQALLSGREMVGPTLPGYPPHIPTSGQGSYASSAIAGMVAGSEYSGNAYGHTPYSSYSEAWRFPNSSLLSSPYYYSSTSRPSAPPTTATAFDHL
Protein Wnt-3a, sequence (P27467 whole entry): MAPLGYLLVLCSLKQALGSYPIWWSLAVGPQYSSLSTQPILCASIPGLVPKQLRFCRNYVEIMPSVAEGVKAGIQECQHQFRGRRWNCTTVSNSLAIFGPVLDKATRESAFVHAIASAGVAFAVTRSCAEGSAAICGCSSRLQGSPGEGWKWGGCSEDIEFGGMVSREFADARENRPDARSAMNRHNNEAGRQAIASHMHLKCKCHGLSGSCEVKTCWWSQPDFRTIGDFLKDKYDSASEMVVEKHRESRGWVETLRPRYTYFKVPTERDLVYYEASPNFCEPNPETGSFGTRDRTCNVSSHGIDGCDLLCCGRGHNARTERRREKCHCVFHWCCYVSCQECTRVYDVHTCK
Melanocortin receptor 4, sequence (P32245 whole entry): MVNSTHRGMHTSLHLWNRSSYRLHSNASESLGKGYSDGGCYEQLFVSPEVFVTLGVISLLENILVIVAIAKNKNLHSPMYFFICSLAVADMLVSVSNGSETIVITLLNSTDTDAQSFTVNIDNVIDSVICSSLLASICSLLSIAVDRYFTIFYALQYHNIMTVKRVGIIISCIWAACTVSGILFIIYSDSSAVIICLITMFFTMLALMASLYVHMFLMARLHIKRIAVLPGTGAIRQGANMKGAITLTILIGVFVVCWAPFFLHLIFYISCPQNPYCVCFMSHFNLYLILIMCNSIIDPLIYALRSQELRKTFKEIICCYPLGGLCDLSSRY
Galanin receptor type 3, sequence (O60755 whole entry): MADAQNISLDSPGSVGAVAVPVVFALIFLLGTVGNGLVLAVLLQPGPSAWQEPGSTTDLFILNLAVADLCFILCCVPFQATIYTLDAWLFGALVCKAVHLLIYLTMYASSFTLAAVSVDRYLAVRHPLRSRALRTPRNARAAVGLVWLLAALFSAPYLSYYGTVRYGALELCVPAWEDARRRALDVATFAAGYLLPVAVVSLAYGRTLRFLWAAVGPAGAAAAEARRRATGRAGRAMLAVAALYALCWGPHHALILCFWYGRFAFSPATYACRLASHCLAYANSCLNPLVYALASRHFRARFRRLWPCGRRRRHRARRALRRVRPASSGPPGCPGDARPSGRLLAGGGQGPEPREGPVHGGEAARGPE
Tumor necrosis factor, sequence (P01375 whole entry): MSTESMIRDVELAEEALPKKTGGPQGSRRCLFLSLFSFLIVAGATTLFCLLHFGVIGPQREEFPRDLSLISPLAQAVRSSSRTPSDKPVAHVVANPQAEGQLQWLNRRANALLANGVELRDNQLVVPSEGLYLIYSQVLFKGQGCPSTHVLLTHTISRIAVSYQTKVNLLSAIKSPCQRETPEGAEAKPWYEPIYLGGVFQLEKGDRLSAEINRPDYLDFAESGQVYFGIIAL

CCn1cc(/C=C/C(=O)c2ccc(O)cc2)c(C)n1
IC50 (HEK293 [1]): > 67.5 µM (inactive) | IC50 [2]: > 67.5 µM (inactive)

COc1ccccc1OCc1ccc(C(=O)N2CCN(C(=O)c3ccco3)CC2)cc1
IC50 [3]: 36 µM (inactive)

CC1CCN(C(=O)c2cc(-c3ccccc3O)on2)CC1
AC50 (HeLa): 129 µM (active)

COc1ccc(/C=C/C(=O)c2ccc(NS(=O)(=O)c3ccc(C)cc3)cc2)cc1O
EC50 [4]: 32.2 µM (active) | AC50 [5]: 2.69 µM (active) | CC50 (Vero [6]): 17.9 µM (active) | IC50 (Vero [7]): > 25 µM (active)

COC(=O)c1ccc(COC(=O)C23CC4CC(CC(O)(C4)C2)C3)o1
IC50 [3]: 17.4 µM (inactive)

CCS(=O)(=O)N1CCN(c2nc(-c3ccccc3)cs2)CC1
AC50 (HeLa): 61.6 µM (active)

O=C(Nc1nc(-c2cccs2)cs1)c1cccc(S(=O)(=O)N2CCCCCC2)c1
IC50 (Protein Wnt-3a): 19.2 µM (active)

CCOc1ccc(NC(=O)Cc2cccc3ccccc23)c([N+](=O)[O-])c1
IC50 [8]: > 67.5 µM (inactive)

Cn1nccc1C(=O)NC1CCCc2c1cnn2-c1ccc(C(C)(C)C)cc1 (stereo not drawn)
IC50 (Tumor necrosis factor): 0.2 µM (active) | EC50 (cells [9]): > 29.9 µM (inactive) | AC50 (INS1): 1.62 µM (active) | IC50 (HEK293 [10]): 16.4 µM (active) | IC50 (Galanin receptor type 3): 0.143 µM (active) | IC50 [11]: 1.25 µM (active) | IC50 [12]: 0.232 µM (active)

COc1ccc(C(=O)Nc2nncs2)cc1S(=O)(=O)N1CC(c2ccccc2)CC1=O (stereo not drawn)
IC50 (HEK293 [1]): > 67.5 µM (inactive) | IC50 [2]: > 67.5 µM (inactive)

CN(C)CCOc1ccc(-c2c(-c3ccsc3)sc3ccccc23)cc1
EC50 (Melanocortin receptor 4): > 89.2 µM (inactive) | AC50 [5]: 3.47 µM (active) | CC50 [13]: 11.3 µM (active) | IC50 [14]: > 20 µM (inactive)

CCN(CC)C(=O)OCc1c(-c2ccccc2)ncc2ccccc12
AC50 (HeLa): 110 µM (active)

CC(=O)Nc1cc(-c2ccc(F)cc2)cn2c(-c3ccc(F)c(Cl)c3)cnc12
EC50 (Melanocortin receptor 4): > 89.2 µM (inactive)

C[C@@H]1CN([C@H](C)CO)C(=O)c2cc(NC(=O)Nc3ccccc3)ccc2O[C@@H](C)CCCCO[C@@H]1CN(C)Cc1ccc(C(F)(F)F)cc1
AC50 [15]: 51.4 µM (active) | AC50 (Paired box protein Pax-8): 6.35 µM (active) | AC50 [16]: 61.8 µM (active) | AC50 [17]: 28.6 µM (active)

C[C@H](CO)N1C[C@H](C)[C@@H](CN(C)Cc2ccc(C(F)(F)F)cc2)OCCCC[C@H](C)Oc2ccc(NS(=O)(=O)c3ccc(Cl)cc3)cc2C1=O
AC50 [15]: 21.7 µM (active) | AC50 (Paired box protein Pax-8): 7.37 µM (active) | AC50 [16]: 34.1 µM (active) | AC50 [17]: 14.5 µM (active)

N#C/C(=N\Nc1ccc(Cl)cc1)C(=N)N1CCCCCC1
EC50 [18]: > 67.5 µM (inactive) | IC50 (HEK293 [1]): > 0.833 µM (active) | IC50 [2]: > 67.5 µM (inactive)

CN(C)CC#Cc1cccc(-c2nc(C(=O)NCCCN3CCOCC3)cc3c2[C@H](CCO)N([S+]([O-])C(C)(C)C)C3)c1 (stereo partly drawn)
AC50 [19]: 1.24 µM (active)

CC(C)N1C[C@H](C)[C@@H](CN(C)Cc2ccc(Cl)cc2)Oc2c(cccc2-c2nnn(-c3ccncc3)n2)C1=O
AC50 [19]: 0.12 µM (active)

Oc1ccc(Cl)cc1/C=N/CCc1ccccc1
EC50 (cells [20]): > 29.9 µM (inactive) | IC50 (cells [21]): 9.79 µM (active)

CCCn1c2c(c(=N)c3c1CCC3)CCCC2
IC50 (Protein Wnt-3a): 37 µM (inactive)
